Tested on: human skin cells (HEKn keratinocytes)
Experiment: Urban Dust induced lipid peroxidation
Format: cell-based
Conditions: after 4 hours, test sample 5%
Protocol: A third-party testing facility conducted tests to determine the effects of standardized Urban Dust particulates (NIST® SRM® 1649b) on the production of free radicals and lipid peroxidation in human skin cells (HEKn keratinocytes). Tests were conducted at 1 hour, 2 hours and 3 hours with varying concentrations of the test samples (1%, 3%, and 5%) (i.e. at one hour intervals) to measure intracellular reactive oxygen species and after 4 hours with test sample (5%) for lipid peroxidation. A fluorescent plate reader was utilized to measure a fluorescent dye incubated in all test conditions which measures intracellular reactive oxygen species and lipid peroxidation. The measurement is expressed as the mean relative fluorescent unit (RFU). FIG. 4B illustrates by bar graph the effects of the Urban Dust on tissue. Non-exposed tissue has immeasurably low RFU. The urban dust exposed cells have an increase in lipid peroxidation with 0.2 RFU.

## Cc1c(C)c2c(c(C)c1O)CCC(C)(C(=O)O)O2 (centres unmarked) [Trolox]
Exposed to Urban Dust, Urban Dust alone 0.2 RFU
  Lipid peroxidation (mean RFU): about 0.05 RFU
Vs Urban Dust exposed cells
  Reduction in lipid peroxidation: 67%

Reference: patent US20200237626A1, “Anti-Aging Corrective and Protective Formulation and Methods” (JAMRM, LLC, priority 2019, published 2020)
